Reference: patent US6737383B1, “Herbicidal oxadiazolidines” (priority 1999, dated 2004)

Columns and labels:
[1] = system: morningglory; assay: Test A morningglory; format: in vivo, Ipomoea spp.; details: 0 to 10 scale where 0 is no effect and 10 is complete control
Procedure, shortened: (§1)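 Ratings came from visual comparison with untreated plants about eleven days after treatment, scored 0 for no effect through 10 for complete control. Both soil-drench preemergence and runoff-spray postemergence applications were made at the same time.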

[2] = system: barnyardgrass; assay: Test A barnyardgrass; format: in vivo, Echinochloa crus-galli; details: 0 to 10 scale where 0 is no effect and 10 is complete control
Protocol: Seeds of barnyardgrass (Echinochloa crus-galli), crabgrass (Digitaria spp.), morningglory (Ipomoea spp.), and velvetleaf (Abutilon theophrasti) were planted into a sandy loam soil and treated preemergence by soil drench with test chemicals formulated in a non-phytotoxic solvent mixture which includes a surfactant At the same time, these crop and weed species were also treated postemergence sprayed to runoff, with test chemicals formulated in the same manner.
Plants ranged in height from two to eighteen cm and were in the one to two leaf stage for the postemergence treatment. Treated plants and untreated controls were maintained in a greenhouse for approximately eleven days, after which all treated plants were compared to untreated controls and visually evaluated for injury. Plant response ratings, summarized in Table A, are based on a 0 to 10 scale where 0 is no effect and 10 is complete control.

[3] = system: crabgrass; assay: Test A crabgrass; format: in vivo, Digitaria spp.; details: 0 to 10 scale where 0 is no effect and 10 is complete control
Procedure, shortened: as §1

[4] = system: Setaria faberii (SETFA); assay: Test F preemergence, alone and in mixture with rimsulfuron, SETFA; format: in vivo; details: 21 days after treatment, 0-100 scale
Procedure, shortened: (§2)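 Greenhouse pot plants treated preemergence with compound at 70 and 105 g ai/ha, rimsulfuron at 8.8 and 17.5 g ai/ha, or mixtures; 27° C day/21° C night, 14 hour photoperiod. Injury scored at 21 days after treatment against solvent-sprayed controls; expected additive effect of mixtures calculated by Colby's equation.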

[5] = system: Abutilon theophrasti (ABUTH); assay: Test F preemergence, alone and in mixture with rimsulfuron, ABUTH; format: in vivo; details: 21 days after treatment, 0-100 scale
Procedure, shortened: as §2

[6] = system: Amaranthus rudis (AMATA); assay: Test F preemergence, alone and in mixture with rimsulfuron, AMATA; format: in vivo; details: 21 days after treatment, 0-100 scale
Protocol: (§3) Abutilon theophrasti (ABUTH), Chenopodium album (CHEAL), Amaranthus rudis (AMATA), Setaria faberii (SETFA), Panicum dichotomiflorum (PANDI), and Digitaria sanguinalis (DIGSA) were grown from seed in pots of an artificial potting mixture in a greenhouse. Compounds of the present invention were applied at 70 and 105 g ai/ha preemergence. Rimsulfuron was applied at 8.8 and 17.5 g ai/ha. Mixtures of the compounds of the present invention and rimsulfuron were also applied.
(§4) Following application, the plants were maintained by watering as needed. A fertilizer solution of Peter's 20-20-20 (10 pounds/5 gallons of water) plus Sprint 330, a Iron Chelate micronutrient, (113.5 grams/5 gallons of water) was injected into the water with an Anderson fertilizer injection system to provide approximately 219 ppm of nitrogen with each watering. Artificial lighting was used to supplement natural light to produce a 14 hour photoperiod and: an additional one hour light period was used between 1:00 am to 2:00 am for a night interruption. Greenhouse temperatures were targeted for 27° C. in the day and 21° C. at night. At 21 days after treatment, all plants were evaluated for injury as compared to control plants that were sprayed only with non-phytotoxic solvent.
(§5) Colby's equation was used to calculate the expected additive herbicidal effect of the mixtures of Compound 21 and the mixture partners listed above. […]

[7] = system: Chenopodium album (CHEAL); assay: Test F preemergence, alone and in mixture with rimsulfuron, CHEAL; format: in vivo; details: 21 days after treatment, 0-100 scale
Protocol: as §3, §4, §5

[8] = system: certain weeds; assay: Test F overall statement on synergism with rimsulfuron (Colby's equation); format: in vivo; details: combinations with rimsulfuron, preemergence
Protocol: as §4, with “Abutilon theophrasti (ABUTH), Chenopodium album (CHEAL), Amaranthus rudis (AMATA), Setaria […]), Panicum dichotomiflorum (PANDI), and Digitaria sanguinalis (DIGSA) were grown from seed in pots of an artificial potting mixture in a greenhouse. Compounds of the present invention were applied at 70 and 105 g ai/ha preemergence. Rimsulfuron was applied at 8.8 and 17.5 g ai/ha. Mixtures of the compounds of the present invention and rimsulfuron were also applied. Following” for “Following”, “solvent. […] Colby's equation was used to calculate the expected additive herbicidal effect of the mixtures of Compound 21 and the mixture partners listed above. […]” for “solvent.”

[9] = system: Digitaria sanguinalis (DIGSA); assay: Test F preemergence, alone and in mixture with rimsulfuron, DIGSA; format: in vivo; details: 21 days after treatment, 0-100 scale
Protocol: as §3, §4, §5

[10] = Alone: Cmpd. rate 70, Rimsulfuron 0
[11] = Alone: Cmpd. rate 105, Rimsulfuron 0

With `CC(C)N(C(=O)n1oc(=O)n(-c2ccc(Cl)cc2Cl)c1=O)c1ccc(F)cc1` [Compound 7, 4-(2,4-Dichlorophenyl)-N-(4-fluorophenyl)-N-(1-methylethyl)-3,5-dioxo-1,2,4-oxadiazolidine-2-carboxamide] as the compound, how does the melting point read?
The melting point was 57 to 60 °C.

What does the source list for `CCN(CC)C(=O)n1oc(=O)n(-c2c(C)cccc2C)c1=O` [Compound 2]?
Plant response rating, Morningglory ([1]; Postemergence, Rate 1000 g/ha): 0; Plant response rating, Morningglory ([1]; Pre-emergence, Rate 2000 g/ha): 0; Plant response rating, Barnyardgrass ([2]; Postemergence, Rate 1000 g/ha): 8; Plant response rating, Barnyardgrass ([2]; Pre-emergence, Rate 2000 g/ha): 9; Plant response rating, Crabgrass ([3]; Postemergence, Rate 1000 g/ha): 0; Plant response rating, Crabgrass ([3]; Pre-emergence, Rate 2000 g/ha): 2

Which “SETFA Observed” value [4, 10] does the source give for `CC(C)N(C(=O)n1oc(=O)n(C2CC2)c1=O)c1ccc(F)cc1` [Compound 242] here?
Its value is 60%.

And the “SETFA Observed” value [4, 11]?
Its value is 75%.

What about the “ABUTH Observed” value [5, 10] of the same compound?
Its value is 50%.

And the “ABUTH Observed” value [5, 11]?
Its value is 70%.

What about the “AMATA Observed” value [6, 10] of the same compound?
The value was 20%.

What about the “AMATA Observed” value [6, 11] of the same compound?
The value was 55%.

What about the “CHEAL Observed” value [7, 10] of the same compound?
Its value is 30%.

What about the “CHEAL Observed” value [7, 11] of the same compound?
Its value is 100%.

And the “Weed control of combination with rimsulfuron compared with expectation from Colby's equation” value [8]?
Its value is “better control of certain weeds than expected”.

What about the “DIGSA Observed” value [9, 10] of the same compound?
Its value is 100%.

And the “DIGSA Observed” value [9, 11]?
The value was 100%.
